Experiments:
Assay type in all cases: physicochemical
[1] = Hygroscopic weight gain on storage at 80% humidity for 24 hours; conditions: stored under a humidity condition of 80%+2% for 24 hours
[2] = Angle of repose (powder comprehensive characteristic tester); conditions: Example 1 batch
Protocol: The powder falls through the funnel to form a cone, and then the angle between the inclined plane and the horizontal plane is determined. The test is repeated in triplicate.

[3] = Dynamic vapor sorption (DVS) evaluation; conditions: DVS 25° C.
Protocol: The DVS pattern of the crystal form is tested using a DVS Intrinsic (SMS) at a test temperature of 25° C. and detected in cycle-DMDT mode.
Dynamic vapor sorption curve (also referred to as adsorption-desorption characteristic curve) was evaluated using a DVS Intrinsic (SMS). Approximately 30 mg of the sample prepared in Example 1 was subjected to a three-stage programmed scanning method at room temperature (25° C.) as follows: the first-stage hygroscopicity program involving a stepwise increase in relative humidity from 60% RH to 90% RH, with a relative humidity change rate of 10% RH/step; the second-stage hygroscopicity program involving a stepwise decrease in relative humidity from 90% RH to 0% RH, with a relative humidity change rate of 10% RH/step; and the third-stage hygroscopicity program involving a stepwise increase in relative humidity from 0% RH to 90% RH, with a relative humidity change rate of 10% RH/step. The mass change rate mode (dm/dt mode) was used, where when the mass change rate (dm/dt) was ≤0.005%, the instrument program controlled the switching of the relative humidity (RH) to the next stage and maintained constant humidity (+/−10% RH).

[4] = Drying of wet crystal product with Karl Fischer water content and XRPD testing; conditions: drying at 30° C.-35° C., vacuum
Protocol: (§1) The XRPD pattern of the crystal form is collected using an X'Pert3 Powder diffractometer, which uses Cu […] irradiation and performs detection using Absolute scan at room temperature. The detection range is from 3.5° to 40°, with a step size of 0.013°, a dwell time of 50 s, and one scan.
The wet crystal product of Example 1 was dried under conditions of a temperature of 30° C.-35° C. and a vacuum degree of −0.08 Mpa. During the drying, the samples were collected for Karl Fischer water content testing and XRPD.

[5] = Influencing factors stability: high temperature, high humidity, illumination, accelerated conditions (XRPD, HPLC purity); conditions: for remaining at 840 h: solid state
Text: Samples were collected and tested for XRPD and HPLC purity at day 0, day 5, day 10, and day 35, respectively.

[6] = Temperature- and humidity-mediated crystal transformation (XRPD, HPLC purity, KF water content)
Protocol: as §1
Samples 1 and 2 were tested for XRPD, HPLC purity, and KF water content.

[7] = Bulk density and tap density (powder density tester); conditions: Example 1 batch
Protocol: The top surface is carefully leveled, and the apparent volume is recorded. The cylinder is then placed on the powder density tester and shaken at a frequency of 1250. The taped volume is recorded, and then the tap density is calculated. The same batch of samples is tested three times in parallel.

[8] = Particle size distribution (Malvern Mastersizer 3000); conditions: Example 1 batch; dispersion solvent water
Protocol: Test method: The particle type is set as non-spherical, the particle refractive index is 1.52, the particle absorption rate is 0.001, and the rotation speed is 1800 rpm; the obscuration is 2%-15%, the sample background test time is 10 seconds, the dispersion solvent is water, the dispersant refractive index is 1.330, and the stabilization time is about 30 seconds; the number of tests is 3.

[9] = Accelerated and long-term storage, crystal form by XRPD
Protocol: The packaged samples were stored under conditions of 30° C./35% RH and 40° C./75% RH, and collected and investigated for crystal forms at day 0, 3 months, and 6 months, respectively.

[10] = Illumination at 25° C. (4500 lx), day 35
[11] = day 0, Example 3 batch, packaged
[12] = before/after drying (30° C., vacuum, humidity ≤20%, 24 h) and re-storage (RH 60%-80%, 25° C.-30° C., 24 h)

SMILES: CN(CCN1CCC(OC(=O)Nc2ccccc2-c2ccccc2)CC1)C(=O)c1ccc(CN2CCC(C(N)=O)CC2)cc1 [crystal form A of revefenacin]
- hygroscopic weight gain [1]: < 2%
- powder angle of repose [2]: 45 °
- hygroscopic weight gain ([3]; humidity increased from 60% RH to 90% RH, sample of Example 1): < 0.4%
- hygroscopic weight gain ([3]; within the range of 30%-90% RH, sample of Example 1): < 2%
- crystal form of the samples collected during the DVS process ([3]; sample of Example 1): remains unchanged
- DVS curve characteristics ([3]; sample of Example 1, FIG. 5): reversible adsorption/desorption characteristics and low hygroscopicity
- crystal form (XRPD) ([4]; KF water content=7.1%): mixed crystals
- crystal form (XRPD) ([4]; KF water content=8.3%): crystal form A
- crystal form (XRPD) ([4]; KF water content=8.9%): crystal form A
- crystal form (XRPD) ([4]; KF water content=17%): crystal form A
- XRPD crystal form ([5]; 40° C., day 5): form A
- XRPD crystal form ([5]; 40° C., day 10): form A
- XRPD crystal form ([5]; 40° C., day 35): Crystal form A
- XRPD crystal form ([5]; 40° C./75% RH, day 5): form A
- XRPD crystal form ([5]; 40° C./75% RH, day 10): form A
- XRPD crystal form ([5]; 40° C./75% RH, day 35): Crystal form A
- XRPD crystal form ([5]; 92.5% RH (25° C.), day 5): form A
- XRPD crystal form ([5]; 92.5% RH (25° C.), day 10): form A
- XRPD crystal form ([5]; 92.5% RH (25° C.), day 35): Crystal form A
- XRPD crystal form ([5]; Illumination at 25° C. (4500 lx), day 5): form A
- XRPD crystal form ([5]; Illumination at 25° C. (4500 lx), day 10): form A
- XRPD crystal form [5, 10]: Crystal form A
- Purity (HPLC) [5, 11]: Purity: 99.87%
- XRPD crystal form [5, 11]: form A
- crystal form on exposure to stress conditions ([5]; high temperature (40° C.), high humidity (92.5% RH), illumination and accelerated (40° C./75% RH) conditions): remains unchanged
- remaining at 840 h ([5]; 40° C., day 35): 99.9%
- remaining at 840 h ([5]; 40° C./75% RH, day 35): 99.9%
- remaining at 840 h ([5]; 92.5% RH (25° C.), day 35): 99.9%
- remaining at 840 h [5, 10]: 99.9%
- HPLC % [6, 12]: 99.79%
- KF/water content [6, 12]: 9.1%
- XRPD [6, 12]: Crystal form A
- chemical purity of the crystal form ([6]; during the temperature- and humidity-mediated mutual transformation of crystal forms): remains unchanged
- bulk density [7]: 0.285 g/mL
- tap density [7]: 0.494 g/mL
- particle size D10 [8]: 8.40 μm
- particle size D50 [8]: 25.86 μm
- particle size D90 [8]: 53.59 μm
- crystal form and crystallinity ([9]; 3-month and 6-month storage under the accelerated condition (40° C./75% RH)): remains unchanged in both crystal form and crystallinity
- crystal form ([9]; 30° C./35% RH, 6 months): Crystal form A
- crystal form ([9]; 30° C./35% RH, day 0): Crystal form A
- crystal form ([9]; 40° C./75% RH, 3 months): Crystal form A
- crystal form ([9]; 40° C./75% RH, 6 months): Crystal form A
- crystal form ([9]; 40° C./75% RH, day 0): Crystal form A
- crystal form and crystallinity ([9]; long-term conditions (30° C./35% RH) for 6 months): remains unchanged in both crystal form and crystallinity

— patent US20260285810A1, “CRYSTAL FORM OF MUSCARINE ANTAGONIST, METHOD FOR PREPARING SAME, AND USE THEREOF” (SICHUAN KELUN PHARMACEUTICAL RESEARCH INSTITUTE CO., LTD., priority 2023, published 2026)
